pEC50: −log10 of the molar value. Counter-ions that a name gives are not always drawn.

From patent US8618144B2, “Pyrrolidine-derived beta 3 adrenergic receptor agonists” (Merck Sharp & Dohme Corp, priority 2009, dated 2013) come the findings set out here.

T1 sequence (P13945 whole entry): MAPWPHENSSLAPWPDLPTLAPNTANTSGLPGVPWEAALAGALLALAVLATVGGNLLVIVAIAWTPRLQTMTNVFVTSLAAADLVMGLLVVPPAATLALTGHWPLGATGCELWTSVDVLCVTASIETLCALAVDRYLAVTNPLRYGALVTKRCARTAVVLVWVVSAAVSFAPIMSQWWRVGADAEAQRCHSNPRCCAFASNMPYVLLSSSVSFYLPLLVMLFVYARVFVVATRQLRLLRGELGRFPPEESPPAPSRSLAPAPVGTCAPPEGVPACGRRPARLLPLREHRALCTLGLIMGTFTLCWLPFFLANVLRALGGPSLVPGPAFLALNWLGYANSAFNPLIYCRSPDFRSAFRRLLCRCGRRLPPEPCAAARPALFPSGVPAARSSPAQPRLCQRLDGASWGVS

The first assay has as its target T1, human β3 adrenergic receptor (Homo sapiens, UniProt P13945).
T1 construct: expressed in transfected cells; host or cells: Chinese hamster ovary (CHO) cells, stably transfected
In words: Functional Assay: cAMP production in CHO cells stably transfected with cloned β3-adrenergic receptor (LANCE). The format is cell-based. The note with it: CHO cells expressing β3 receptor, range classes, read-out: Human β3 EC50. Here is the method: Functional Assay: cAMP production in response to ligand is measured according to Barton et al (1991, Agonist-induced desensitization of D2 dopamine receptors in human Y-79 retinoblastoma cells. Mol. Pharmacol. […]) modified as follows. cAMP production is measured using a homogenous time-resolved fluorescence resonance energy transfer immunoassay (LANCE™, Perkin Elmer) according to the manufacture's instructions. Chinese hamster ovary (CHO) cells, stably transfected with the cloned β-adrenergic receptor (β1, β2 or β3) are harvested after 3 days of subculturing. Harvesting of cells is done with Enzyme-free Dissociation Media (Specialty Media). Cells are then counted and resuspended in assay buffer (Hank's Balanced salt solution supplemented with 5 mM HEPES, 0.1% BSA) containing a phosphodiesterase inhibitor (IBMX, 0.6 mM). The reaction is initiated by mixing 6,000 cells in 6 μL with 6 μL Alexa Fluor labeled cAMP antibody (LANCE™ kit) which is then added to an assay well containing 12 ul of compound (diluted in assay buffer to 2× final concentration). The reaction proceeds for 30 minutes at room temperature and is terminated by the addition of 24 μL detection buffer (LANCE™ kit). The assay plate is then incubated for 1 hour at room temperature and time-resolved fluorescence measured on a Perkin Elmer Envision reader or equivalent. The unknown cAMP level is determined by comparing fluorescence levels to a cAMP standard curve.
The non-selective, full agonist β-adrenergic ligand isoproterenol is used at all three receptors to determine maximal stimulation. The human β3 adrenergic receptor (AR) selective ligand (S)—N-[4-[2-[[2-hydroxy-3-(4-hydroxyphenoxy)propyl]amino]ethyl]-phenyl]-4-iodobenzenesulfonamide is used as a control in all assays. Isoproterenol is titrated at a final concentration in the assay of 10^−10 M to 10^−5 M and the selective ligand (S)—N-[4-[2-[[2-hydroxy-3-(4-hydroxyphenoxy)propyl]amino]ethyl]phenyl]-4-iodobenzenesulfonamide is titrated at the β3 receptor at concentration of 10^−10 M to 10^−5 M. Unknown ligands are titrated at all 3β-adrenergic receptor subtypes at a final concentration in the assay of 10^−10 M to 10^−5 M to determine the EC50. The EC50 is defined as the concentration of compound that gives 50% activation of its own maximum. Data are analyzed using Microsoft Excel and Graphpad Prism or an internally developed data analysis software package.
In general terms: Cyclic AMP is a second messenger, typically raised through Gs and lowered through Gi signalling.
Turning to `Cc1csc(CC(=O)Nc2ccc(C[C@@H]3CC[C@H]([C@H](O)COc4ccccc4)N3)cc2)n1` [Example 3], the pEC50 was 8.00 to 9.00.
Consider `Cc1nc(CC(=O)Nc2ccc(C[C@@H]3CC[C@H]([C@H](O)COc4ccccc4)N3)cc2)c(C)s1` [Example 5], for which the pEC50 is 8.00 to 9.00.
As for `O=C(Cc1nnc(-c2ccccc2)[nH]1)Nc1ccc(C[C@@H]2CC[C@H]([C@H](O)COc3ccccc3)N2)cc1` [Example 6], the pEC50 was more than 9.00.

Staying with this assay, now noted: CHO cells expressing β3 receptor, read-out: human β3 functional activity (EC50).
With `Nc1nc(CC(=O)Nc2ccc(C[C@@H]3CC[C@H]([C@H](O)COc4ccccc4)N3)cc2)cs1` [Example 1, 2-(2-Amino-1,3-thiazol-4-yl)-N-[4-({(2S,5R)-5-[(1S)-1-hydroxy-2-phenoxyethyl]pyrrolidin-2-yl}methyl)phenyl]acetamide bis-trifluoroacetate salt], the pEC50 is more than 9.00.
The same measure, in the same setting: next, `Nc1nc(CC(=O)Nc2ccc(C[C@H]3CC[C@H]([C@H](O)COc4ccccc4)N3)cc2)cs1` [Example 11, 2-(2-Amino-1,3-thiazol-4-yl)-N-[4-({(2R,5R)-5-[(1S)-1-hydroxy-2-phenoxyethyl]pyrrolidin-2-yl}methyl)phenyl]acetamide bis trifluoroacetate salt]: 6.00 to 7.00; `O=S(=O)(Nc1ccc(C[C@@H]2CC[C@H]([C@H](O)COc3ccccc3)N2)cc1)c1ccc(-c2nc(-c3ccc(C(F)(F)F)cc3)cs2)cc1` [Example 12, N-[4-({(2S,5R)-5-[(1S)-1-Hydroxy-2-phenoxyethyl]pyrrolidin-2-yl}methyl)phenyl]-4-{4-[4-(trifluoromethyl)phenyl]-1,3-thiazol-2-yl}benzenesulfonamide trifluoroacetate salt]: more than 8.00; `O=S(=O)(Nc1ccc(C[C@@H]2CC[C@H]([C@H](O)COc3ccccc3)N2)cc1)c1ccc(I)cc1` [Example 13]: more than 8.00.
On the same count and under the same terms, next, `CCCCCCNC(=O)Nc1ccc(S(=O)(=O)Nc2ccc(C[C@@H]3CC[C@H]([C@H](O)COc4ccccc4)N3)cc2)cc1` [Example 14, 4-{[(Hexylamino)carbonyl]amino}-N-[4-({(2S,5R)-5-[(1S)-1-hydroxy-2-phenoxyethyl]pyrrolidin-2-yl}methyl)phenyl]benzenesulfonamide trifluoroacetate salt]: more than 9.00; `Nc1ncn(CC(=O)Nc2ccc(C[C@@H]3CC[C@H]([C@H](O)COc4ccccc4)N3)cc2)n1` [Example 15, 2-(3-Amino-1H-1,2,4-triazol-1-yl)-N-[4-({(2S,5R)-5-[(1S)-1-hydroxy-2-phenoxyethyl]pyrrolidin-2-yl}methyl)phenyl]acetamide trifluoroacetate salt]: more than 9.00.

For orientation: pEC50 means −log10 of the EC50, conventionally taken in molar units.
